Like-named read-outs stand apart in the source and are kept apart here.
How the values were obtained:
ADRB3 [1] = target: ADRB3; parameters: method as in PMID 14730417, PMID 8719421, PMID 7903415, PMID 2570461; conditions: literature values for standard compounds; ref [43], [45]–[47]; read-out: Ki ADRB3 reference; cited from earlier work
[2] = target: T1, human adrenergic beta-3 receptor (ADRB3) (Homo sapiens, UniProt P13945); experiment: Competitive binding assay, CHO-K1-ADRB3 cell membranes, [3H]CGP-12177 radioligand; conditions: for Ki: CHO-K1-ADRB3 membranes, 5 nM [3H]CGP-12177, 90 min 27°C, read-out: Ki ADRB3 experimental; for ADRB3/ MCHR1 (ratio of Ki values): selectivity toward MCHR1, ADRB3 Ki measured, MCHR1 Ki from ref [28]
T1 construct: host or cells: CHO-K1
T1 sequence (P13945 whole entry): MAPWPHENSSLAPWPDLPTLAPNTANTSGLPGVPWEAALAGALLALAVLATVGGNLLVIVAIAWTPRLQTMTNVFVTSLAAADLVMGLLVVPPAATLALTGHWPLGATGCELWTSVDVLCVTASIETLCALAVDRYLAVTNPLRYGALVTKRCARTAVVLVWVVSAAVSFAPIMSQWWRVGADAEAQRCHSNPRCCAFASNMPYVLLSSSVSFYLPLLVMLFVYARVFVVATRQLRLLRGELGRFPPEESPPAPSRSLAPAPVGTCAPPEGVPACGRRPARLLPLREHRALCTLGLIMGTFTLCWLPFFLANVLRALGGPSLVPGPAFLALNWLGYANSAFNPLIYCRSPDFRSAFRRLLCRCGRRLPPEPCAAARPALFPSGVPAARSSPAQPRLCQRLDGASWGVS
Procedure: CHO-K1-ADRB3 cell membranes were prepared from 175 cm^2 cell culture flasks, when 80% confluence was reached. All procedures were performed at 4°C. Cells were scraped off using ice-cold lysis buffer (10 mM Tris-HCl pH 7.4, 1 mM EDTA) and protease inhibitor cocktail was added according to the manufacturer's instructions (Sigma-Aldrich, St. Louis, USA). The cell suspension was homogenized using cannulas (29 G) and centrifuged for 10 min at 1,000 × g. The obtained supernatant was centrifuged for 30 min at 100,000 × g. Subsequently, the pellet was suspended using 50 mM Tris-HCl pH 7.4 and aliquoted. Aliquots were shock-frozen in liquid nitrogen and stored at −80°C until usage. Protein concentration of the cell membrane suspension was determined using BCA Protein Assay Kit (Thermo Scientific, Waltham, USA).
All stated concentrations refer to the final assay volume of 500 μL buffer (25 mM HEPES pH 7.4, 1 mM EDTA, 0.5% BSA). Competitive binding assays were performed using 13.6 ng/μL ADRB3 expressing CHO-K1 cell membrane suspension (cf. 2.3) and 5 nM [^3H]CGP-12177 as the respective radioligand. […] Nonspecific binding was determined using 10 μM carazolol. Total binding was determined in the presence of 1% respective solvent. Incubation was performed for 90 min at 27°C. Filtration through GF/B filters (Whatman®, presoaked in 0.05% PEI) was performed using a cell harvester (Brandel®, Gaithersburg, MD, USA) and was followed by two washing steps using ice-cold wash buffer (10 mM HEPES, 500 mM NaCl, pH 7.4). Filter pieces containing receptor-bound radioactivity were shaken for 30 min in scintillation cocktail (Ultima Gold™, PerkinElmer, Waltham, USA) before liquid scintillation counting (Hidex 300 SL, Turku, Finland). IC50 fitted binding curves were generated using the GraphPad Software 5.0 (La Jolla, CA, USA) using nonlinear regression.

CHO-K1-ADRB3 cells = target: T2, CHO-K1-ADRB3 cells (Homo sapiens, UniProt P13945); experiment: Real-time kinetic displacement of [125I]Iodocyanopindolol binding (LigandTracer); format: cell-based; conditions: 20 μM non-radioactive compound applied after 60 min association phase
T2 construct: host or cells: CHO-K1
T2 sequence (P13945 whole entry): as above
Procedure: 2.5 × 10^5 cells (CHO-K1, CHO-K1-ADRB3) per cell culture dish were seeded 2 days prior to the experiment and incubated in an inclined position to allow an adherent cell pole at one side of the cell dish. Cell dish preparation was performed as previously described ([32], [33]). Real-time kinetic radioligand binding measurements were performed using a dedicated device for low energy gamma radiation (LigandTracer® Gray Technology, Ridgeview, Sweden). The assay protocol compromised consecutive radioactivity measurements of the target region (cell pole) and of the opposite pole of the petri dish, where no cells were seeded (background signal). Radioactivity was counted in each region for 3 s with a delay of 2 s over the time course of the experiment. Raw counts per second (cps) of the target region were corrected for background signal and for radioactive decay. Displacement of [^125I]Iodocyanopindolol binding was conducted after 1 h association phase of radioligand binding by consecutively applying rising concentrations of SNAP-7941 and FE@SNAP. The same volume of ethanol was added as vehicle control. Experiments were performed on at least three different days.

MCHR1 = target: MCHR1; parameters: method as in PMID 28808288; conditions: previously described; ref [28]; cited from earlier work
murine brown adipocytes [3] = experiment: [18F]FDG uptake in brown adipocytes (brown adipocyte activation); format: cell-based; conditions: 30 min pre-treatment, baseline (vehicle) = 100% uptake/well, mean ± SD
Procedure: (§1) Cells were maintained under standard conditions in a humidified incubator (37°C, 5% CO2). CHO-K1 cells expressing the human adrenergic beta-3 receptor (CHO-K1-ADRB3) were purchased from PerkinElmer (ValiScreen® ES-035-C). CHO-K1-ADRB3 were grown using Ham's F12 (Nut Mix) supplemented with 10% FCS, 2 mM L-glutamine, penicillin (100 Units/mL), streptomycin (100 μg/mL), and 0.4 mg/mL geneticin. CHO-K1 cells were a generous gift from Prof. Karl Norbert Klotz (University Würzburg, Germany) and cultured likewise without selection antibiotics. Immortalized murine brown pre-adipocytes were provided by the Department of Medicine III (Medical University of Vienna, Austria) and cultured in high glucose Dulbecco's Modified Eagle's Medium (DMEM) supplemented with 10% FBS, 1 mM pyruvate, penicillin (100 Units/mL) and streptomycin (100 μg/mL). When cells were confluent, differentiation to brown adipocytes was induced for 48 h using 1.72 μM insulin (human recombinant), 1 nM thyroid hormone (T3), 0.5 mM 3-isobutyl-1-methylxanthine (IBMX), 125 nM indomethacin, and 1 μM dexamethasone. After induction, the medium was changed to post-differentiation medium (high glucose DMEM) supplemented with 10% FBS, 1 mM pyruvate, penicillin (100 Units/mL), streptomycin (100 μg/mL), 1.72 μM insulin, and 1 nM T3. The post-differentiation medium was replenished every second day. Brown adipocytes were used for experimental investigations 4–6 days after induction. Oil Red O staining was performed according to the manufacturer's instructions. Counterstaining was performed using haematoxylin.
Brown pre-adipocytes were seeded, grown to confluence and differentiated in 6-well plates as described in section General. Cell starving was performed for 1 h using unsupplemented, glucose-free DMEM. […] [^18F]FDG uptake was performed for 50 min at 37°C (humidified atmosphere, 5% CO2). Supernatant was taken off, cells were washed with ice-cold PBS and finally trypsinized. Radioactive cell fractions were gamma counted (2480 Wizard^2, PerkinElmer) and normalized to percentage uptake per well. [^18F]FDG uptake under baseline conditions refers to 100% uptake. Three independent experiments were performed in triplicates. Statistical analysis was performed using an unpaired, two-tailed t-test.

murine brown adipocytes [4] = experiment: Specific [11C]SNAP-7941 binding to brown adipocytes (competition); format: cell-based; conditions: 2 μM unlabeled compound; for [11C]SNAP-7941 binding per well referring to baseline: 30 min pre-treatment, baseline (vehicle) = 100% binding/well, mean ± SD
Procedure: as §1
Brown pre-adipocytes were seeded, grown to confluence and differentiated in six-well plates as described above. Thirty minutes prior to the experiment, maintenance medium (cf. 2.1) was discarded and replaced with respective serum- and additive-free medium to avoid plasma protein binding of the PET-tracer. Cell starving, as performed for [^18F]FDG uptake measurements, was not indicated for [^11C]SNAP-7941 binding experiments. […] Baseline was determined using DMSO or ethanol, respectively. Sample processing, data analysis and statistical testing were performed as described in [^18F]FDG Uptake Experiments: Effects of MCHR1 Ligands on Brown Adipocyte Activation.

ADRB3 [5] = target: ADRB3; parameters: method as in PMID 20590599; conditions: assumed for Ki calculation; ref [31]; cited from earlier work

Row | Structure (SMILES) | Effect on [125I]Iodocyanopindolol binding to CHO-K1-ADRB3 cells (CHO-K1-ADRB3 cells) | Ki (MCHR1) [nM] | Ki ([2]; n = 3 in triplicates) [nM] | ADRB3/ MCHR1 (ratio of Ki values) [2] | [18F]FDG uptake referring to baseline (murine brown adipocytes [3]; 20 μM compound) [%] | [11C]SNAP-7941 binding per well referring to baseline (murine brown adipocytes [4]) [%] | [18F]FDG uptake referring to baseline (murine brown adipocytes [3]; 2 μM compound) | also measured
1 | CC(C)NCC(O)COc1cccc2[nH]c3ccccc3c12 (centres unmarked) [carazolol, reference compound] | – | – | – | – | – | – | – | Ki (ADRB3 [1]): 2 nM; Ki ([2]; three independent experiments in triplicates): 2 ± 0.3 nM
2 | COCC1=C(C(=O)OCCF)C(c2ccc(F)c(F)c2)N(C(=O)NCCCN2CCC(c3cccc(NC(C)=O)c3)CC2)C(=O)N1 (centres unmarked) [FE@SNAP] | did not affect binding | 9.98 ± 1.12 | 65100 ± 2900 | ~6,523 | 73.03 ± 13.6 | – | – | –
3 | COCC1=C(C(=O)OC)[C@H](c2ccc(F)c(F)c2)N(C(=O)NCCCN2CCC(c3cccc(NC(C)=O)c3)CC2)C(=O)N1 [SNAP-7941] | did not affect binding | 3.91 ± 0.74 | 14500 ± 300 | ~3,708 | 63.24 ± 2.6 | 77.1 ± 5.0 | – | Reduction of [11C]SNAP-7941 binding (murine brown adipocytes [4]; versus baseline): 22.9 ± 5.0%
4 | C[C@H](Cc1ccc2c(c1)OC(C(=O)[O-])(C(=O)[O-])O2)NC[C@H](O)c1cccc(Cl)c1.[Na+].[Na+] [CL 316,243, reference compound] | – | – | – | – | – | 91.1 ± 3.6 | 137.7 ± 12.2% | –
5 | CC(C)(C)NCC(O)COc1cccc2[nH]c(=O)[nH]c12 (stereo not drawn) [[^3H]CGP-12177, 5,7-[^3H](-)CGP-12177] | – | – | – | – | – | – | – | Kd (ADRB3 [5]): 109 nM
6 | CC(C)NC[C@H](O)COc1cccc2ccccc12.Cl [(S)-propranolol, (S)-propranolol hydrochloride] | – | – | – | – | – | 95.8 ± 8.6 | did not alter | [11C]SNAP-7941 binding per well referring to baseline (murine brown adipocytes [4]; listed as propranolol): did not alter

— paper PMC6581027, “In vitro Radiopharmaceutical Evidence for MCHR1 Binding Sites in Murine Brown Adipocytes” (Frontiers in Endocrinology, 2019)
